From ChEMBL document CHEMBL5465560, “Selectivity Literature for EUbOPEN Chemogenomic Library” (2024) come the findings set out here.

SMILES strings stand for the structures. A value given as a limit tells only on which side of the number the result lay.

The target of test [1] is Dual specificity testis-specific protein kinase 1 (Homo sapiens) (UniProt Q15569). Kind of test: Selectivity interaction (Ambit KINOMEscan and KiNATiv profiling in Jurkat cells) EUB0000090b TESK1. It counts as cell-based. Conditions: at 1 µM.
Test [2] is described as follows: Selectivity interaction (KinomeScan (DiscoverX)) EUB0000607a CDPK1. The note with it: at 10 µM.
The target in test [3] is Homeodomain-interacting protein kinase 2 (Homo sapiens, UniProt Q9H2X6). The experiment in a line: Selectivity interaction (KinomeScan (DiscoverX)) EUB0000666a HIPK2. The note with it: at 10 µM.
Test [4] addresses T1, Histone-lysine N-methyltransferase EHMT1 (Homo sapiens) (UniProt Q9H9B1).
T1 sequence (whole entry): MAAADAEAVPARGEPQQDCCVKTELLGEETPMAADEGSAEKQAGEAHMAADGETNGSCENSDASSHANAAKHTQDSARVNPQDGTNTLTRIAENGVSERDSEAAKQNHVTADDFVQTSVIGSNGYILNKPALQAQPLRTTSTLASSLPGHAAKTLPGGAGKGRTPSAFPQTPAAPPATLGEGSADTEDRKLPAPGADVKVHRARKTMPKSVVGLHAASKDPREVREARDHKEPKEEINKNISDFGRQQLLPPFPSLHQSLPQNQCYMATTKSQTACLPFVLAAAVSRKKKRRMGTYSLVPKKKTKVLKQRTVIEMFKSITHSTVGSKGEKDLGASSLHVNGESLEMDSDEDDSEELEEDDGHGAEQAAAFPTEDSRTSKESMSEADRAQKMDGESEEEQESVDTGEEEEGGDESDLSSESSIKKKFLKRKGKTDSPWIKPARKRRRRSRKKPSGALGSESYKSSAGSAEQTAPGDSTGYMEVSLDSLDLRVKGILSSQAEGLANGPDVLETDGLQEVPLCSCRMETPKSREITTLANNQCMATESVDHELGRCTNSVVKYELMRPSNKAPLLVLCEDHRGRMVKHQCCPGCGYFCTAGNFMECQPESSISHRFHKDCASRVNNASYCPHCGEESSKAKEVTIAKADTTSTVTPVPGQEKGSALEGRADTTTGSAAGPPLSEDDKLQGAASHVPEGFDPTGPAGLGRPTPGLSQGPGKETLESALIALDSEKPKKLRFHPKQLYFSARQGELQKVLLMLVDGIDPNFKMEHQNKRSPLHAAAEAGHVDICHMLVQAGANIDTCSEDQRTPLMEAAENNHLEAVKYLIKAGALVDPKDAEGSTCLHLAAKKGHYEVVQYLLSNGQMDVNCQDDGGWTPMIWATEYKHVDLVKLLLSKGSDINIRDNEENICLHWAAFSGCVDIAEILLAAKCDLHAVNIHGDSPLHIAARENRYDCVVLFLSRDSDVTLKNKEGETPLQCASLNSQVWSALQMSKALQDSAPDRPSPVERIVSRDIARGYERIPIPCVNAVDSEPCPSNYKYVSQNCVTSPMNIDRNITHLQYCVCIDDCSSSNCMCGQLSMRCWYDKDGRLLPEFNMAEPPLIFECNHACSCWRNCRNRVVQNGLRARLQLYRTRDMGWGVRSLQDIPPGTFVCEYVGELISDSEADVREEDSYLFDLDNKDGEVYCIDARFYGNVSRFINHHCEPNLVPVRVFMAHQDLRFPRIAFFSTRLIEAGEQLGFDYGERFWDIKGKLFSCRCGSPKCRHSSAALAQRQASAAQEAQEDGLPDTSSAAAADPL
Kind of test: Selectivity interaction (Methyltransferase screen (Scintillation proximity assays)) EUB0000255b EHMT1. (In a scintillation proximity assay essentially only radioactivity close to the scintillant gives light.)

For test [5], the target named is Casein kinase I isoform alpha (Homo sapiens, UniProt P48729). Kind of test: Selectivity interaction (Kinase screening (Upstate/Millipore)) EUB0000604a CSNK1A1.
Test [6] deals with T2, Dual specificity mitogen-activated protein kinase kinase 7 (Homo sapiens) (UniProt O14733).
T2 sequence (whole entry): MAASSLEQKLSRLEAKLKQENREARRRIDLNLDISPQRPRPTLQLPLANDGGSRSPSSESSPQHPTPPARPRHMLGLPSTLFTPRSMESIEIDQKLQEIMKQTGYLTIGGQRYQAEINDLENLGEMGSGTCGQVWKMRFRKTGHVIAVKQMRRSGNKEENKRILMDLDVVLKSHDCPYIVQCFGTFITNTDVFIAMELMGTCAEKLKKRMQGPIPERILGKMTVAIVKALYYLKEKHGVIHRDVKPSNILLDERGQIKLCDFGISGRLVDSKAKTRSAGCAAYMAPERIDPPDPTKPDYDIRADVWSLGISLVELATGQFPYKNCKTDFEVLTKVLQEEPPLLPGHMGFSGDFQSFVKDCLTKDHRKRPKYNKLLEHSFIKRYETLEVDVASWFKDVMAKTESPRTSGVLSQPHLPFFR
The experiment in a line: Selectivity interaction (KinomeScan (DiscoverX)) EUB0000695a MAP2K7. Conditions: at 100 nM.

Test [7] deals with Serine/threonine-protein kinase 26 (Homo sapiens, UniProt Q9P289). The experiment in a line: Selectivity interaction (Kinase panel (DSF assay)) EUB0001559a STK26. (In general: In DSF a fluorescence change marks the thermal transition of the protein.)
Test [8] has as its target T3, Protein arginine N-methyltransferase 7 (Homo sapiens) (UniProt Q9NVM4).
T3 sequence (whole entry): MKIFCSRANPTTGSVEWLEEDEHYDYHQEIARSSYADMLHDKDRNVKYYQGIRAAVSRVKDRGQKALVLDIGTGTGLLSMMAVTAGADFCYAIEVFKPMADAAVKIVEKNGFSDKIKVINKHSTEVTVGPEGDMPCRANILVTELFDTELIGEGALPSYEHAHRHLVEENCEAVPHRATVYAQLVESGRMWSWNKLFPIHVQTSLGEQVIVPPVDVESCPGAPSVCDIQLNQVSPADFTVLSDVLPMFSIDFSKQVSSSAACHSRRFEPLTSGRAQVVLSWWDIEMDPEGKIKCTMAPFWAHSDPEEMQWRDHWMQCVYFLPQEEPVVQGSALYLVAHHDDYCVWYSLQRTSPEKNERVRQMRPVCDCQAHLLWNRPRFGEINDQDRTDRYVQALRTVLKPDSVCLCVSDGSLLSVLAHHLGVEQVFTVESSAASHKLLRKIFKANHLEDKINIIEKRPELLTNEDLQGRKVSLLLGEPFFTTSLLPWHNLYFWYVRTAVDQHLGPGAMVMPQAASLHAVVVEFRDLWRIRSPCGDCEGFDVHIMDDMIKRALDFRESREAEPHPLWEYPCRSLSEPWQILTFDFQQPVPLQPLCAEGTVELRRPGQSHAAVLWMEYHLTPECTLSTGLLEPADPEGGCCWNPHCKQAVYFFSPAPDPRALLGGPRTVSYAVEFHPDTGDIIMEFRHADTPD
Kind of test: Selectivity interaction (Methyltransferase screen (radiometric assays, panel of 8 PRMTs, 21 protein lysine methyltransferases, 3 DNA methyltransferases, and one RNA methyltransferase)) EUB0000272b PRMT7.

Chain of Casein kinase I isoform alpha (P48729 2-337 limits assumed): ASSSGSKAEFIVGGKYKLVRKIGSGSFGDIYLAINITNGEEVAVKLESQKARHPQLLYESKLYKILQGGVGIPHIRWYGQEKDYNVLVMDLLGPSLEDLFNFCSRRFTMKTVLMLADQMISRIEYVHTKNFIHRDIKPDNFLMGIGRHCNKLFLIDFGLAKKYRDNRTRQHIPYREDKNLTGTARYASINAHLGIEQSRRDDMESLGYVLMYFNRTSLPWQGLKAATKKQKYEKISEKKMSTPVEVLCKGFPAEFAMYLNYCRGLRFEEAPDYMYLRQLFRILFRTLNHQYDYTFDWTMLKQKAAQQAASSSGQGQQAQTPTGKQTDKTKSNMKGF
Chain of Dual specificity testis-specific protein kinase 1 (Homo sapiens) (Q15569 whole entry, looked up): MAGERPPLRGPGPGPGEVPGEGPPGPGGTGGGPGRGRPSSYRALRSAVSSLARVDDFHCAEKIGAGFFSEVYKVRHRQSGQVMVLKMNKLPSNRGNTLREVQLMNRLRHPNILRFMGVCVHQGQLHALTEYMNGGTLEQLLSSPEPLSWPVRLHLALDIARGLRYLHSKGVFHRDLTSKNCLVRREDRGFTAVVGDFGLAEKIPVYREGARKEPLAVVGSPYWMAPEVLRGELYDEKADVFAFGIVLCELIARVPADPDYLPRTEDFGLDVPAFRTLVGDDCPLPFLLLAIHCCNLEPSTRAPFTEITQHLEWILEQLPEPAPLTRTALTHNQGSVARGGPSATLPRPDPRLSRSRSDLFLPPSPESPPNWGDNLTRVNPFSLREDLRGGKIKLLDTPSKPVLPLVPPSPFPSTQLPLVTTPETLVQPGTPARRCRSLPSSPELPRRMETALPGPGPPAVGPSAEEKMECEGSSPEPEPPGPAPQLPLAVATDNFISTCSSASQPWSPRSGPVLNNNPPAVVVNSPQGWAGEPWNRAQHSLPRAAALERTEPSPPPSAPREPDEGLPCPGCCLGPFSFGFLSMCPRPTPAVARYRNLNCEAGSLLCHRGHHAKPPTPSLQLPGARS
Chain of Serine/threonine-protein kinase 26 (Q9P289 2-416 limits assumed): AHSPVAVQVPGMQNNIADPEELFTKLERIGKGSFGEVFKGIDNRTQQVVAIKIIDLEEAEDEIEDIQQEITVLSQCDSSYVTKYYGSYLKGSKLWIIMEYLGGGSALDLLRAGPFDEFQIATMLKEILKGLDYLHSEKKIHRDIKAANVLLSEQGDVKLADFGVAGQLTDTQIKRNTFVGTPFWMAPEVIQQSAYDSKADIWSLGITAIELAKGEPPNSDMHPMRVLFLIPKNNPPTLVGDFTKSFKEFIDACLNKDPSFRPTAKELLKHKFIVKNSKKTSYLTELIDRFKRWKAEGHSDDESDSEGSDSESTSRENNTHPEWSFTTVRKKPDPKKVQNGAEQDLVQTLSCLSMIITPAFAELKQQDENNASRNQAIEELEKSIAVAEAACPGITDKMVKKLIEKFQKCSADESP
Chain of Homeodomain-interacting protein kinase 2 (Q9H2X6 whole entry, looked up): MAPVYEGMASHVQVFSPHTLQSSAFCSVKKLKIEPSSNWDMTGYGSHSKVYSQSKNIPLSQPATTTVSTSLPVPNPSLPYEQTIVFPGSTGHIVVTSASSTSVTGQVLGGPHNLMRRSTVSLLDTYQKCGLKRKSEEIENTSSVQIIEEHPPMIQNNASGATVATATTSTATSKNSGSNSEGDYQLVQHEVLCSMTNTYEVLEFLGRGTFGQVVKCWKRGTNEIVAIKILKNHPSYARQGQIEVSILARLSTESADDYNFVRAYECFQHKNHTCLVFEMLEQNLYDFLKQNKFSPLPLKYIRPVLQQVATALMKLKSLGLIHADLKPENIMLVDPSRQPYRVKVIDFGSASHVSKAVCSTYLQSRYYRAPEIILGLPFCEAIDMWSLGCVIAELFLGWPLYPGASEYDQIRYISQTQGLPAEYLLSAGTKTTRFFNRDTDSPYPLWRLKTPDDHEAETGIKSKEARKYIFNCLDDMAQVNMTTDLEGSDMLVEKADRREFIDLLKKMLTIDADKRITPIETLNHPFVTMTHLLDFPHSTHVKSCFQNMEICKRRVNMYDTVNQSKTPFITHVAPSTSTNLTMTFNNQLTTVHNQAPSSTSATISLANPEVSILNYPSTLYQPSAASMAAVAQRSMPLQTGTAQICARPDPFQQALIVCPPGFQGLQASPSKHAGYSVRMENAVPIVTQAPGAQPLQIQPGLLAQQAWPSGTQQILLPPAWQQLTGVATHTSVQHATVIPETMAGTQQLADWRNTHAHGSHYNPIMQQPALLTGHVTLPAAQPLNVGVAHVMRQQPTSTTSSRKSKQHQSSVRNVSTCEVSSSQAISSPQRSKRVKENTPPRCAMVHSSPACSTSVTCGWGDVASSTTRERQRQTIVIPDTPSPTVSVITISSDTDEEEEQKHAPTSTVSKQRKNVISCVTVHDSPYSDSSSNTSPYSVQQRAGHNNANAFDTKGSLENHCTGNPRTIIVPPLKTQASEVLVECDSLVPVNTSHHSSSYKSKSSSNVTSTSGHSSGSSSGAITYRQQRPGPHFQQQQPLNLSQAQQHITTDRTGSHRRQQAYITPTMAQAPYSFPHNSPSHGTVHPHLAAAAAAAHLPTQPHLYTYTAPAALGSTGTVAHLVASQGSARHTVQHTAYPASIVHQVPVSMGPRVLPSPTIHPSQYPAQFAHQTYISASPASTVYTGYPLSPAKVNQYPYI

In turn, `CN(C)C/C=C/C(=O)Nc1ccc(C(=O)N2CCCC(Nc3ncc(Cl)c(-c4c[nH]c5ccccc45)n3)C2)cc1` (stereo not given) returned a % of control in test [1] of 86%.
Compound `CNC(=O)Nc1ccc(-c2nc(N3CC4CCC(C3)O4)c3cnn(C4CCC5(CC4)OCCO5)c3n2)cc1` registered a % of control in test [2] of 86%.
In the case of `O=C(NOC[C@H](O)CO)c1ccc(F)c(F)c1Nc1ccc(I)cc1F`, the % of control in test [3] worked out at 100%.
In the case of `COCCN1CCC(c2cc(CN(C)C(=O)c3cccc(Oc4ccccc4)c3)ccn2)CC1`, the % activity in test [4] (at 1 µM) is greater than 95%; in test [4] (at 10 µM), greater than 90%.
Compound `Cc1cnc(Nc2ccc(F)cc2Cl)nc1-c1c[nH]c(C(=O)N[C@H](CO)c2cccc(Cl)c2)c1` came in with a % of inhibition in test [5] of 25%.
Compound `Cc1cc(F)c(C(=O)Nc2cccc(-c3nncn3C(C)C)n2)cc1-n1cnc(C2CC2)c1` yielded a % of control in test [6] of 95%.
Regarding `CN(C(=O)c1cnn2cccnc12)c1cc2c(cc1N1CCOCC1)C(=O)N(C[C@@H](F)C(C)(C)O)C2`, the dTM in test [7] worked out at 0.5 K.
On to `Cc1cc(C)cc([C@H]2c3cc(C)ccc3NC(=O)CN2C(=O)c2ccc(Br)s2)c1`, for which the % of activity in test [8] (at 1 µM) was 97.7%; in test [8] (at 10 µM) it was 100%.
